Tests used:
SHR-SP rats = test: 2-lever discriminative reaction task in SHR-SP rats (ADHD model); format: in vivo, rat
Description: A. Test method (1) While spontaneously hypertensive rat (SHR) is a hypertension model rat widely used in research, this lineage not only develops hypertension but also behaves similarly in the juvenile stage to patients with attention deficit/hyperactivity disorder (attention-deficit/hyperactivity disorder: ADHD), as evidenced by disrupted retention of attention and the like (Sagvolden T, Russell V A, Aase H, Johansen E B, Farshbaf M. (2005): Rodent models of attention-deficit/hyperactivity disorder. Biol Psychiatry. 57(11): 1239-47). Particularly, SHR-SP (subtype of SHR) in the juvenile stage is recently recognized as an animal model of developmental disorder such as ADHD by those of ordinary skill in the art (Ueno K I, Togashi H, Mori K, Matsumoto M, Ohashi S, Hoshino A, Fujita T, Saito H, Minami M, Yoshioka M. (2002): Behavioural and pharmacological relevance of stroke-prone spontaneously hypertensive rats as an animal model of a developmental disorder. Behav Pharmacol. 13(1): 1-13).
Thus, those of ordinary skill in the art consider that SHR-SP is suitable as an ADHD model.
Therefore, the inventor employed the SHR-SP rats and evaluated the effect of compound A on ADHD.
(2) The test was performed using 24 SHR-SP rats and 12 WKY rats (both 5-week-old; provided by CLEA Japan, Inc.). They were reared at 12 hr light-dark cycle (light was on at 7:00 am) and allowed free access to water. The feeding was restricted such that the body weight was 85% of that by free food ingestion. All rats were subjected to handling before the test.
As a test apparatus, 4 Skinner boxes each equipped with a 45 mg feed pellet feeding tray (reward delivery opening) in the center of the wall and a cue lamp and a retractable lever set on the sides of the tray were set (see FIG. 1).
(3) The rats were trained for 2 days for lever pressing-feeding associative learning. One session consisted of 30 trials or 900 sec. Two levers were presented, pressing either lever affords feed pellets (reinforcer), and a buzzer sound indicating correctness was made. Solely in the training on the initial day, feed pellets were automatically given with a buzzer every 45 seconds. All animals reached the criteria obtaining 30 feed pellets within 300 sec. (4) In the test session, a 2-lever discriminative reaction task was performed. In the 2-lever discriminative reaction task, 1 session consisted of 30 sets of ITI (inter-trial interval) for 30 sec and reaction latency for 30 sec maximum. The house lamp was turned on at the start of the session to indicate both retractable levers. The lever pressing reaction of the animal was sequentially recorded while indicating the levers until completion of 30 trials. […]

SHR-SP = details: at a low dose; cited from earlier work

Row | SMILES | transition of total number of reaction during trials (index of impulsivity) (SHR-SP rats; 1.0 mg/kg oral daily, up to session 4, positive drug group vs control group, FIG. 5) | correct answer latency (reaction latency when correct answer was selected) (index of motivation, sedation and the like) (SHR-SP rats; 1.0 mg/kg oral, 14 consecutive days, positive drug group vs control group, FIG. 7) | number of correct answers (number of reward obtained) (index of attentional deficit) (SHR-SP rats; 1.0 mg/kg oral, 14 consecutive days, positive drug group vs control group, p=0.09, FIG. 6) | total number of reaction during trials (index of impulsivity) (SHR-SP rats; 1.0 mg/kg oral, 14 consecutive days, session 11, positive drug group vs control group, t-test p=0.09, FIG. 5) | effect on abnormal behaviors of SHR-SP (SHR-SP)
1 | CCC(=O)NCC[C@@H]1CCc2ccc3c(c21)CCO3 [compound A, (S)—N-[2-(1,6,7,8-tetrahydro-2H-indeno[5,4-b]furan-8-yl)ethyl]propionamide] | similar | did not show much difference | tended to increase | tended to decrease | 
2 | COC(=O)C(c1ccccc1)C1CCCCN1 (centres unmarked) [methylphenidate] |  |  |  |  | improving effect

Reference: patent US20170128409A1, “PROPHYLACTIC OR THERAPEUTIC AGENT FOR ATTENTION DEFICIT/HYPERACTIVITY DISORDER” (Takeda Pharmaceutical Company Limited, priority 2008, published 2017)
